Assay [1] has as its system T1, PC12 (TrkA & p75).
T1 construct: other: Concentration 25 μM; PC12 cells; other: Concentration 50 μM; other: PC12 cells; 125I-NGF ~0.11 nM; other: PC12 cells expressing TrkA and p75; individual experiment; fused on or other part: 125I label on NGF
Briefly: 125I-NGF binding displacement in PC12 cells. Also on record: species or system rat. To be noted: PC12 cells expressing TrkA and p75; individual experiment. How it is done:
(§1) All cells were incubated at 37° C. in 5% CO2. PC12 cells were maintained in RPMI-1640 medium supplemented with 10% fetal bovine serum (FBS). A875 human melanoma cells were maintained in DMEM with 10% FBS. HEK 293 cells were stably transfected with human TrkA plasmid (see below) and maintained in DMEM with 10% FBS and G418 (600 μg/mL) for selection.
(§2) NGF binding was evaluated using methods familiar to those who are skilled in the art. Briefly, cells expressing one or both NGF receptors (PC12: TrkA+p75; A875: p75 alone; HEK_TrkA: TrkA alone) were harvested by replacing the medium with calcium-magnesium free balanced salt (Grey's) solution and incubating at 37° C. for 15 min. For NGF binding, cells were resuspended at a concentration of 2×10^6 cells/mL in HEPES-Krebs-Ringer (HKR) buffer (10 mM HEPES; 125 mM NaCl; 4.8 mM KCl; 1.3 mM CaCl2; 1.2 mM MgSO4; 1.2 mM KH2PO4; 1 mg/ml BSA; 1 mg/ml glucose; pH 7.4) and exposed to ^125I-NGF (˜0.11 nM) in the presence or absence of varying concentrations of the compound. Non-specific binding was determined for reference by incubating ^125I-NGF with an excess of non-radioactive NGF in the absence of compound. Following a two-hour incubation period at 4° C., ^125I-NGF bound to the cells was quantified in a gamma radiation counter following separation from unbound NGF by filtration or centrifugation through glycerol (10% in HKR). Inhibition of binding was calculated as a percent of the specific binding (calculated as the differential between ^125I-NGF binding in the absence and presence of an excess of non-radioactive NGF without compound). Dose-response inhibition curves were typically generated with seven concentrations of a given compound, with three replicates for each concentration. For most compounds, multiple dose-response curves were generated.

Assay [2] deals with T2, PC12 (TrkA & p75).
T2 construct: other: PC12, A875 an; fused on or other part: 125I label on NGF
Briefly: 125I-NGF binding displacement in PC12 cells. Set-up: species or system rat. To be noted: PC12, A875 and HEK_TrkA cells taken together. How it is done:
as §1, §2

Assay [3] concerns Male Sprague-Dawley rats. Briefly: Chung or Spinal Nerve Ligation (SNL) model of neuropathic pain. The format is in vivo, rat. To be noted: Von Frey filaments, 90 min post-treatment, 5 and 10 mg/kg i.p. The source says: The Spinal Nerve Ligation (SNL) model (Kim and Chung, Pain 1992; 50: 355) was used to induce chronic neuropathic pain. Male Sprague-Dawley rats (Harlan, Indianapolis, Ind., USA) were anesthetized with isoflurane, the left […] was removed, and the L5 and L6 spinal nerves were tightly ligated with 6-0 silk suture. The wound was then closed with internal sutures and external staples.
Mechanical allodynia testing: Pre- and post-injury baselines as well as post-treatment values (vehicle or compound-treated animals) for non-noxious mechanical sensitivity were evaluated using 8 Semmes-Weinstein filaments (Stoelting, Wood Dale, Ill., USA) with varying stiffness according to the up-down method (Chaplan et al., J Neurosci Methods 1994; 53: 55). […] The mean and standard error of the mean (SEM) were determined for each paw in each treatment group. […] Effects of compounds were evaluated two weeks after the injury. Compound or vehicle was administered (i.p. or s.c.) and effects on mechanical allodynia were measured at different time points after dosing (e.g., 30, 60 and 90 min.). […]
Data analysis: Statistical analyses were conducted using Prism™ 4.01 (GraphPad, San Diego, Calif., USA). Mechanical hypersensitivity of the injured paw was determined by comparing contralateral to ipsilateral paw values within the vehicle group at each time point. Data were analyzed using the Mann-Whitney test. […]

Assay [4] relates to Male Sprague-Dawley rats. Briefly: Spared Nerve Injury (SNI) model of neuropathic pain. The class given is in vivo, rat. To be noted: Von Frey filaments, 90 min post-treatment, Compound 11 3 and 10 mg/kg i.p., Compound 107 20 mg/kg i.p. The source says: The Spared Nerve Injury (SNI) model (Decosterd et al., Pain 2000; 87: 149) was used to induce chronic neuropathic pain. Male Sprague-Dawley rats were anesthetized with isoflurane, and two of the three terminal branches of the sciatic nerve (tibial and common peroneal nerves) were transected, leaving the remaining sural nerve intact. Animals develop thermal and mechanical hyperalgesia and allodynia, as well as spontaneous pain or dysesthesia that last month after the nerve injury.
Mechanical allodynia testing: Pre- and post-injury baselines as well as post-treatment values (vehicle or compound-treated animals) for mechanical allodynia were evaluated using Von Frey filaments (Stoelting, Wood Dale, Ill., USA) with varying stiffness. […] The mean and standard error of the mean (SEM) were determined for each paw in each treatment group (ipsilateral/injured paw and contralateral/non-injured paw). […] Effects of compounds were evaluated two weeks after the injury. Compound or vehicle was administered (i.p. or s.c.) and effects on mechanical allodynia were measured at different time points after dosing (e.g., 30, 60 and 90 min.).
Data analysis: Statistical analyses were conducted using Prism™ 4.01 (GraphPad, San Diego, Calif., USA). Mechanical hypersensitivity of the injured paw was determined by comparing contralateral to ipsilateral paw values within the vehicle group at each time point. […]

Each structure is given as a SMILES string. Entries after “also recorded” stand apart in the source; their conditions may differ.

With `CC(=O)Nc1cc2c3c(cc(NC(C)=O)cc3c1)C(=O)N(CCCC(=O)O)C2=O` [Compound 11, 4-(5,8-Bis-acetylamino-1,3-dioxo-1H,3H-benzo[de]isoquinolin-2-yl)-butyric acid], the “NGF binding displacement, dose-response curve” value in the assay on PC12 (TrkA & p75) [1] was “effectively blocks NGF binding to cells expressing TrkA and p75”. In addition, in the assay with PC12 (TrkA & p75) [2], the “Block of NGF binding to TrkA and/or p75 (summary of FIGS. 1B, 2A, 2B, 4A, 4B, 6A, 6B, 7A, 8A, 8B)” value was “effectively block NGF binding to TrkA and/or p75”. Moreover, the “Effect on mechanical allodynia in the SNL model” value in the assay with Male Sprague-Dawley rats [3] is reported as “significant dose-dependent reversal of the mechanical allodynia; also recorded: significant antinociceptive effects”. Also, in the assay with Male Sprague-Dawley rats [4], the “Effect on mechanical allodynia in the SNI model” value was “significant dose-dependent reversal of the mechanical allodynia; also recorded: significant antinociceptive effects”.

The values above are taken from patent US7579468B2, “Methods of modulating neurotrophin-mediated activity” (PainCeptor Pharma Corporation, priority 2005, dated 2009).
